Assay results published in patent US10793552B2, “Amino pyrimidine ssao inhibitors” (Eli Lilly and Company, priority 2016, dated 2020).
Where two headings read alike, the source gives them in different places. One block for each molecule: values may come before it.

Columns and labels:
Format in all cases: in vivo
[1] = Plasma compound levels in 3H diet mice by mass spectroscopy; details: mouse, treated 76 days, 2 hours after the last dose, all doses
Procedure: Male C57BL/6N mice are fed with D09100301 diet (Research Diets, 40% fat, 2% cholesterol, 24% fructose, (the, high fat, high cholesterol and high fructose, the “3H diet”) for 150 days. Each mouse is then singly housed after 5 days for an acclimation period. Plasma alanine aminotransferase (ALT) and cytokeratin 18 (CK18) are measured. After one week of recovery, the mice are randomized into 5 groups based on their ALT values, CK18 values, and body weight. Animals of each group are administrated either vehicle (0.5% methylcellulose (MC)+0.25% Tween 80 in distilled water) or the compound of Example 6 (at a 0.06, 2, 6, and 20 mg/kg dose) once daily in a volume of 5 ml/kg for 11 weeks. Blood is collected from mice treated with the compound of Example 6 for 76 days 2 hours after the last dose. Compound levels in the plasma are analyzed by mass spectroscopy.

[2] = tested on: C57BL/6N mice fed 3H diet; experiment: Mouse Model of NASH and Fibrosis Induced by 3H Diet; details: mouse 3H diet; for Score (0-3) Hepatic inflammation Left / Score (0-3) Macrovesicular vaculation Left / Score (0-3) Perisinusoidal fibrosis Left: left lobe; for Score (0-3) Hepatic inflammation Left / Score (0-3) Macrovesicular vaculation Left / Score (0-3) Perisinusoidal fibrosis Left / Score (0-3) Hepatic inflammation Right / Score (0-3) Macrovesicular vaculation Right / Score (0-3) Perisinusoidal fibrosis Right: mean ± SEM; for Score (0-3) Hepatic inflammation Right / Score (0-3) Macrovesicular vaculation Right / Score (0-3) Perisinusoidal fibrosis Right: right lobe
Procedure: Male C57BL/6N mice are fed with D09100301 diet (Research Diets, 40% fat, 2% cholesterol, 24% fructose, (the, high fat, high cholesterol and high fructose, the “3H diet”) for 150 days. Each mouse is then singly housed after 5 days for an acclimation period. Plasma alanine aminotransferase (ALT) and cytokeratin 18 (CK18) are measured. After one week of recovery, the mice are randomized into 5 groups based on their ALT values, CK18 values, and body weight. […] Blood is collected from mice treated with the compound of Example 6 for 76 days 2 hours after the last dose. Compound levels in the plasma are analyzed by mass spectroscopy. […] At the completion of the study, the animals are sacrificed and their livers excised. Two sections of the left and right lobes are fixed in neutral buffered 10% formalin. Liver tissue slides are stained with hematoxylin and eosin (H&E), Sirius red, and Masson's Trichrome to prepare slides for pathological analysis. All specimens are examined microscopically and scored as a modified Brunt score NASH Activity Score. Scores are based on the grading scheme and end-points as described in Brunt E. M. et al., “Histopathology of nonalcoholic fatty liver disease,” World J. of Gastroenterol, 2010, 16(42), 5286-5296. Group means are then calculated for each individual end-point. The following endpoints are used to characterize the fast food model of NASH in mice as modified from NASH endpoints (See Brunt, E. M. “Histopathology of nonalcoholic fatty liver disease,” Clin Liver Dis., 2009, 13, 533-544 and Brunt, E. M, et al., “Nonalcoholic steatohepatitis: A proposal for grading and staging the histological lesions”, Am J Gastroenterology, 1999, 94(9), 2467-2474.

[3] = target: SSAO (Rattus norvegicus (Rat), UniProt O08590); experiment: SSAO Target Engagement in rat plasma and liver; details: for activity at 0.005 mg/kg / activity at 0.025 mg/kg / activity at 0.12 mg/kg / activity at 0.6 mg/kg / activity at 3 mg/kg / activity at 15 mg/kg: mean ± SEM
Procedure: The SSAO activity in rat plasma and liver tissues are measured using the MAO-Glo™ assay kit from Promega (V1402). The residual SSAO activity in rats after compound treatment is estimated by measuring the total amine oxidase activity in plasma or liver lysates that are insensitive to the presence of the MAO inhibitor Clogyline and Pargyline. Rats are administered the compound of Example 2 at the doses of 15, 3, 0.6, 0.12, 0.025, 0.005 mg/kg. The control group is administered with the same volume (2 ml/kg) of the dosing vehicle (hydroxyethyl cellulose 1% w/v, 0.25% Tween 80). Plasma and liver at 2 or 24 hours post compound treatment are harvested and stored at −78° C. until analysis. Tissue lysates are prepared by homogenization in a lysis buffer (20 mM HEPES, pH 7.4, 150 mM NaCl, 1 mM EDTA, 1 mM EGTA, 1% Triton X-100 and 1× Roche Complete protease inhibitor tablet). Tissue particles are removed by centrifugation at 12,000 rpm at 4° C. for 30 minutes. 40 μl of plasma or liver lysates is incubated with Clogyline (10 μM) and Pargyline (10 μM) for 20 minutes at room temperature before the addition of the luminogenic substrate (50 μM) for 60 minutes. The product generated is quantified according to the manufacture's procedure. The fraction of activity that is insensitive to the presence of the MAO inhibitors is used as the surrogate for the residual SSAO activity. The compound of Example 2 was evaluated in the protocol essentially as described above administered at various doses.

[4] = 20 mg/kg once daily 11 weeks, p < 0.05 vs vehicle
[5] = liver, 24 hour, n = 6, read-out: SSAO Activity (%) Liver 24 hour
[6] = plasma, 2 hour, n = 6, read-out: SSAO Activity (%) Plasma 2 hour
[7] = plasma, 24 hour, n = 6, read-out: SSAO Activity (%) Plasma 24 hour

SSAO, sequence (O08590 whole entry): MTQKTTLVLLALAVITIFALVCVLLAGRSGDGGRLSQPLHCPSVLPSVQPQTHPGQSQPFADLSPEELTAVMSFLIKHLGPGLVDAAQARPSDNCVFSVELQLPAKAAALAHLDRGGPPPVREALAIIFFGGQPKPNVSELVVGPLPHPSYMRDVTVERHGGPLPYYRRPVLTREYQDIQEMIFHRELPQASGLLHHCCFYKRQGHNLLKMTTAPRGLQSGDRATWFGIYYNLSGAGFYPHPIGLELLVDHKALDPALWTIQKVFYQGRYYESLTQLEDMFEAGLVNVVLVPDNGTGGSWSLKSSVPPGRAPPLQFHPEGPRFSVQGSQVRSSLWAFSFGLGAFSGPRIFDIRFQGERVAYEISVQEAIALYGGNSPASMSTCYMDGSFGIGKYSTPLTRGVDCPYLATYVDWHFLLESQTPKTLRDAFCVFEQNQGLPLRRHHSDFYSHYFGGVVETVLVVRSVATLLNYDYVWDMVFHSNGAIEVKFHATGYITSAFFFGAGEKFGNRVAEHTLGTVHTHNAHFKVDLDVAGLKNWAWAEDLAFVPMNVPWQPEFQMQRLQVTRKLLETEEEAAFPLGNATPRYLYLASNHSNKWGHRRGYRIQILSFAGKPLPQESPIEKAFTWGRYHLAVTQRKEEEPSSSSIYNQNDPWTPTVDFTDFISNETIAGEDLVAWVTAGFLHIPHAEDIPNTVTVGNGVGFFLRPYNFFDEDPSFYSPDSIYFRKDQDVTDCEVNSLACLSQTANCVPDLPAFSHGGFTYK

plasma compound levels (in words) [1]: dose-dependent increase
Structure (SMILES): Cl.Cl.NC/C(=C\F)COc1cnc(N2CC[C@H](O)C2)nc1 [Example 6, (3S)-1-[5-[(E)-2-(Aminomethyl)-3-fluoro-allyloxy]pyrimidin-2-yl]pyrrolidin-3-ol; Dihydrochloride]
Score (0-3) Hepatic inflammation Left ([2]; 0.6 mg/kg once daily 11 weeks): 2.6 ± 0.1 | Score (0-3) Macrovesicular vaculation Left ([2]; 0.6 mg/kg once daily 11 weeks): 2.5 ± 0.1 | Score (0-3) Perisinusoidal fibrosis Left ([2]; 0.6 mg/kg once daily 11 weeks): 2.4 ± 0.2 | Score (0-3) Hepatic inflammation Right ([2]; 0.6 mg/kg once daily 11 weeks): 2.5 ± 0.1 | Score (0-3) Macrovesicular vaculation Right ([2]; 0.6 mg/kg once daily 11 weeks): 2.6 ± 0.1 | Score (0-3) Perisinusoidal fibrosis Right ([2]; 0.6 mg/kg once daily 11 weeks): 1.9 ± 0.2 | Score (0-3) Hepatic inflammation Left ([2]; 2 mg/kg once daily 11 weeks): 2.5 ± 0.1 | Score (0-3) Macrovesicular vaculation Left ([2]; 2 mg/kg once daily 11 weeks): 2.5 ± 0.1 | Score (0-3) Perisinusoidal fibrosis Left ([2]; 2 mg/kg once daily 11 weeks): 2.5 ± 0.2 | Score (0-3) Hepatic inflammation Right ([2]; 2 mg/kg once daily 11 weeks): 2.6 ± 0.1 | Score (0-3) Macrovesicular vaculation Right ([2]; 2 mg/kg once daily 11 weeks): 2.7 ± 0.1 | Score (0-3) Perisinusoidal fibrosis Right ([2]; 2 mg/kg once daily 11 weeks): 1.8 ± 0.2 | Score (0-3) Hepatic inflammation Left ([2]; 6 mg/kg once daily 11 weeks): 2.5 ± 0.2 | Score (0-3) Macrovesicular vaculation Left ([2]; 6 mg/kg once daily 11 weeks): 2.9 ± 0.1 | Score (0-3) Perisinusoidal fibrosis Left ([2]; 6 mg/kg once daily 11 weeks): 2.6 ± 0.2 | Score (0-3) Hepatic inflammation Right ([2]; 6 mg/kg once daily 11 weeks): 2.6 ± 0.2 | Score (0-3) Macrovesicular vaculation Right ([2]; 6 mg/kg once daily 11 weeks): 2.7 ± 0.1 | Score (0-3) Perisinusoidal fibrosis Right ([2]; 6 mg/kg once daily 11 weeks): 2.1 ± 0.3 | hepatic inflammation (in words) ([2]; 20 mg/kg): significant decrease | macrovesicular vaculation (in words) ([2]; 20 mg/kg): significant decrease | perisinusoidal fibrosis (in words) ([2]; 20 mg/kg): significant decrease | Score (0-3) Macrovesicular vaculation Left ([2]; 20 mg/kg once daily 11 weeks): 2.4 ± 0.2 | Score (0-3) Perisinusoidal fibrosis Left ([2]; 20 mg/kg once daily 11 weeks): 1.9 ± 0.2 | Score (0-3) Hepatic inflammation Left ([2]; 20 mg/kg once daily 11 weeks, p < 0.01 vs vehicle): 2.1 ± 0.1 | Score (0-3) Hepatic inflammation Right [2, 4]: 2.1 ± 0.1 | Score (0-3) Macrovesicular vaculation Right [2, 4]: 2.3 ± 0.1 | Score (0-3) Perisinusoidal fibrosis Right [2, 4]: 1.5 ± 0.2 | triglyceride levels in blood (in words) ([2]; 6 and 20 mg/kg): decreased triglyceride levels | ALT (in words) ([2]; all treated groups): significant decrease

activity at 0.005 mg/kg [3, 5]: 75 ± 18% | activity at 0.005 mg/kg [3, 6]: 31 ± 3% | activity at 0.005 mg/kg [3, 7]: 70 ± 7% | activity at 0.025 mg/kg [3, 5]: 68 ± 14% | activity at 0.025 mg/kg [3, 6]: 21 ± 1% | activity at 0.025 mg/kg [3, 7]: 55 ± 9% | activity at 0.12 mg/kg [3, 5]: 45 ± 8% | activity at 0.12 mg/kg [3, 6]: 7 ± 1% | activity at 0.12 mg/kg [3, 7]: 35 ± 4% | activity at 0.6 mg/kg [3, 5]: 16.2 ± 2.9% | activity at 0.6 mg/kg [3, 6]: 4.3 ± 0.8% | activity at 0.6 mg/kg [3, 7]: 16.3 ± 2.6% | activity at 3 mg/kg [3, 5]: 7.1 ± 1.7% | activity at 3 mg/kg [3, 6]: 3.6 ± 1% | activity at 3 mg/kg [3, 7]: 8.8 ± 1.3% | activity at 15 mg/kg [3, 5]: 9.6 ± 2.6% | activity at 15 mg/kg [3, 6]: -0.6 ± 0.3% | activity at 15 mg/kg [3, 7]: 6.6 ± 1.8% | inhibition of SSAO activity in rat plasma and liver ([3]; doses 0.005 to 15 mg/kg): dose-dependently inhibits SSAO activity
Structure (SMILES): Cl.Cl.NC/C(=C\F)COc1cnc(N2CCC(O)CC2)nc1 [Example 2, 1-[5-[(E)-2-(Aminomethyl)-3-fluoro-allyloxy]pyrimidin-2-yl]piperidin-4-ol dihydrochloride]
